# According to patent US7799747B2, “Method of reducing surfactant damage using compositions comprising benefit agents of defined high polarity” (Conopco, Inc., priority 2005, dated 2010):
# Columns and labels:
# [1] = target: BSA (Bos taurus, UniProt P02769); assay: Micro-DSC for protein denaturation; details: denaturation enthalpy approaching zero, FIG. 5
# [2] = target: BSA (Bovine Serum Albumin) (Bos taurus, UniProt P02769); assay: Conductivity test: surfactant binding to BSA protein; details: 10% SDS with 10% oil (1:1), 0.5% BSA in 0.02M acetate buffer pH~5.2, room temperature
# BSA (Bovine Serum Albumin), sequence (P02769 25-607): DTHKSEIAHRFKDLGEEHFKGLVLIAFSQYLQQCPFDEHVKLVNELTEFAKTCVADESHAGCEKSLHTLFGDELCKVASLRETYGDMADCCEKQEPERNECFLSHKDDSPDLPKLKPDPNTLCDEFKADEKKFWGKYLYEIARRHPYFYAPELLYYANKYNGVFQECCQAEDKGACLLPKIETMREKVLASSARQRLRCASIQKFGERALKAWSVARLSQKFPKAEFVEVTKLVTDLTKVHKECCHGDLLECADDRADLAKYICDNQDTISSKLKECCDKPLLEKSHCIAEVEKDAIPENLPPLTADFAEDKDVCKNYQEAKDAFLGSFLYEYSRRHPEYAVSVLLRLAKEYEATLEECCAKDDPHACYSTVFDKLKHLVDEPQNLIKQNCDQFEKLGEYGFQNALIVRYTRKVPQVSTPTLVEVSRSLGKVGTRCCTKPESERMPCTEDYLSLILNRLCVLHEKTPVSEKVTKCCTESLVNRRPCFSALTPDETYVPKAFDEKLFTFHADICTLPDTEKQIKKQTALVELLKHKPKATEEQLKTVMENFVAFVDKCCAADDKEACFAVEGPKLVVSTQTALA
# Protocol: Conductance measurements were carried out at room temperature by use of a Thermo conductivity meter, model Orion 150+. Routinely, the titrations were performed by adding a controlled amount of 10% of stock surfactant solution under magnetic stirring into the 0.5% BSA (Bovine Serum Albumin) in 0.02M acetate buffer at pH˜5.2. Values of CMC (critical micellization concentration), CAC (critical aggregation concentration) and protein saturation point (PSP) were defined by the changing of the slope of the conductivity vs. surfactant concentration plots. The number of surfactants binding to each protein can be calculated by: {[PSP]−[CAC]}/{[protein]/Mwprotein}, where [protein] is the protein concentration.
# In order to show the effect of benefit agent having different polarity on binding to protein molecule (a reflection of the harshness of surfactant; more surfactant binding to protein equal harsher and more damage expected), applicants tested surfactant binding of (1) surfactant alone and (2) of surfactant in combination with various oils/cosolvents (at 1:1 surfactant to oil ratio) to see level of (how many) surfactants binding per protein molecule (e.g., BSA) at saturation. The tests were done using conductivity test described in protocol and results are set forth below in Table 1.
# Applicants conducted same test as in Examples 1 to 10, but used SLES/CAPB surfactant system instead of SDS.
# [3] = tested on: pig skin; assay: HPLC test for surfactant deposition onto pig skin after wash; details: SDS measured in combination with the benefit agent
# BSA, sequence (P02769 25-607): as above
Structure (SMILES),ratio surfactant to protein at which BSA is fully denatured at room temperature [1],Saturated binding: No. of surfactant per BSA at saturation [2],SDS deposition versus SDS alone (FIG. 1) [3]
"CCCCCCCCCCCCOS(=O)(=O)[O-].[Na+] [10% SDS, Sodium dodecyl sulfate]",about 1.2,220,
CCCCCCCCCCCC [dodecane],,,deposition was about the same or higher
